Tests used:
Assay in all cases: Test B preemergence/postemergence greenhouse plant response rating 0 to 10
[1] = tested on: barley; assay type: in vivo, Hordeum vulgare; settings: for Plant response rating, Barley: 0 to 10 scale
Text: (§1) Seeds of barley (Hordeum vulgare), barnyardgrass (Echinochloa crus-galli), bedstraw (Galium aparine), blackgrass (Alopecurus myosuroides), […] (Bromus secalinus), chickweed (Stellaria media), cocklebur (Xanthium pensylvanicum), corn (Zea mays), cotton (Gossypium hirsutum), crabgrass (Digitaria spp.), giant foxtail (Setaria faberii), lambsquarters (Chenopodium album), morningglory (Ipomoea hederacea), rape (Brassica napus), rice (Oryza sativa), sorghum (Sorghum bicolor), soybean (Glycine max), sugar beet (Beta vulgaris), velvetleaf (Abutilon theophrasti), wheat (Triticum aestivum), wild buckwheat (Polygonum convolvulus), and wild oat (Avena fatua) and purple nutsedge. (Cyperus rotundus) tubers were planted and treated preemergence with test chemicals dissolved in a non-phytotoxic solvent. At the same time, these crop and weed species were also treated with postemergence applications of test chemicals. Plants ranged in height from two to eighteen cm (one to four leaf stage) for postemergence treatments. Treated plants and controls were maintained in a greenhouse for twelve to sixteen days, after which all species were compared to controls and visually evaluated. […] A dash (-) response means no test result.

[2] = tested on: barnyardgrass; assay type: in vivo, Echinochloa crus-galli; settings: for Plant response rating, Barnyardgrass: 0 to 10 scale
Text: as §1

[3] = tested on: bedstraw; assay type: in vivo, Galium aparine; settings: for Plant response rating, Bedstraw: 0 to 10 scale
Text: as §1

[4] = tested on: blackgrass; assay type: in vivo, Alopecurus myosuroides; settings: for Plant response rating, Blackgrass: 0 to 10 scale
Text: as §1

[5] = tested on: cheatgrass; assay type: in vivo, Bromus secalinus; settings: for Plant response rating, Cheatgrass: 0 to 10 scale
Text: as §1

[6] = tested on: chickweed; assay type: in vivo, Stellaria media; settings: for Plant response rating, Chickweed: 0 to 10 scale
Text: as §1

[7] = tested on: cocklebur; assay type: in vivo, Xanthium pensylvanicum; settings: for Plant response rating, Cocklebur: 0 to 10 scale
Text: as §1

[8] = tested on: corn; assay type: in vivo, Zea mays; settings: for Plant response rating, Corn: 0 to 10 scale
Text: as §1

[9] = tested on: cotton; assay type: in vivo, Gossypium hirsutum; settings: for Plant response rating, Cotton: 0 to 10 scale
Text: as §1

[10] = tested on: crabgrass; assay type: in vivo, Digitaria spp.; settings: for Plant response rating, Crabgrass: 0 to 10 scale
Text: as §1

[11] = tested on: giant foxtail; assay type: in vivo, Setaria faberii; settings: for Plant response rating, Giant foxtail: 0 to 10 scale
Text: as §1

[12] = tested on: lambsquarters; assay type: in vivo, Chenopodium album; settings: for Plant response rating, Lambsquarter: 0 to 10 scale
Text: as §1

[13] = tested on: morningglory; assay type: in vivo, Ipomoea hederacea; settings: for Plant response rating, Morningglory: 0 to 10 scale
Text: as §1

[14] = tested on: rape; assay type: in vivo, Brassica napus; settings: for Plant response rating, Rape: 0 to 10 scale
Text: as §1

[15] = tested on: rice; assay type: in vivo, Oryza sativa; settings: for Plant response rating, Rice: 0 to 10 scale
Text: as §1

[16] = tested on: sorghum; assay type: in vivo, Sorghum bicolor; settings: for Plant response rating, Sorghum: 0 to 10 scale
Text: as §1

[17] = tested on: soybean; assay type: in vivo, Glycine max; settings: for Plant response rating, Soybean: 0 to 10 scale
Text: as §1

[18] = tested on: sugar beet; assay type: in vivo, Beta vulgaris; settings: for Plant response rating, Sugar beet: 0 to 10 scale
Text: as §1

[19] = tested on: velvetleaf; assay type: in vivo, Abutilon theophrasti; settings: for Plant response rating, Velvetleaf: 0 to 10 scale
Text: as §1

[20] = tested on: wheat; assay type: in vivo, Triticum aestivum; settings: for Plant response rating, Wheat: 0 to 10 scale
Text: as §1

[21] = tested on: wild buckwheat; assay type: in vivo, Polygonum convolvulus; settings: for Plant response rating, Wild buckwheat: 0 to 10 scale
Text: as §1

[22] = tested on: wild oat; assay type: in vivo, Avena fatua; settings: for Plant response rating, Wild oat: 0 to 10 scale
Text: as §1

[23] = tested on: purple nutsedge; assay type: in vivo, Cyperus rotundus; settings: for Plant response rating, Nutsedge: 0 to 10 scale
Text: as §1

## CCOC(=O)COc1cc(-c2nn3c(c2Cl)CCCC3)c(Cl)cc1Cl [Compound 73]
[1]; POSTEMERGENCE, Rate 50 g/ha
  Plant response rating, Barley: 2
[1]; PREEMERGENCE, Rate 50 g/ha
  Plant response rating, Barley: 0
[1]; PREEMERGENCE, Rate 200 g/ha
  Plant response rating (0 to 10 scale), Barley: 0
[1]; Rate 200 g/ha, POSTEMERGENCE
  Plant response rating, Barley: 3
[2]; POSTEMERGENCE, Rate 50 g/ha
  Plant response rating, Barnyardgrass: 7
[2]; PREEMERGENCE, Rate 50 g/ha
  Plant response rating, Barnyardgrass: 0
[2]; PREEMERGENCE, Rate 200 g/ha
  Plant response rating (0 to 10 scale), Barnyardgrass: 0
[2]; Rate 200 g/ha, POSTEMERGENCE
  Plant response rating, Barnyardgrass: 9
[3]; POSTEMERGENCE, Rate 50 g/ha
  Plant response rating, Bedstraw: 7
[3]; PREEMERGENCE, Rate 50 g/ha
  Plant response rating, Bedstraw: 2
[3]; PREEMERGENCE, Rate 200 g/ha
  Plant response rating (0 to 10 scale), Bedstraw: 9
[3]; Rate 200 g/ha, POSTEMERGENCE
  Plant response rating, Bedstraw: 8
[4]; POSTEMERGENCE, Rate 50 g/ha
  Plant response rating, Blackgrass: 5
[4]; PREEMERGENCE, Rate 50 g/ha
  Plant response rating, Blackgrass: 0
[4]; PREEMERGENCE, Rate 200 g/ha
  Plant response rating (0 to 10 scale), Blackgrass: 0
[4]; Rate 200 g/ha, POSTEMERGENCE
  Plant response rating, Blackgrass: 5
[5]; POSTEMERGENCE, Rate 50 g/ha
  Plant response rating, Cheatgrass: 3
[5]; PREEMERGENCE, Rate 50 g/ha
  Plant response rating, Cheatgrass: 0
[5]; PREEMERGENCE, Rate 200 g/ha
  Plant response rating (0 to 10 scale), Cheatgrass: 2
[5]; Rate 200 g/ha, POSTEMERGENCE
  Plant response rating, Cheatgrass: 6
[6]; POSTEMERGENCE, Rate 50 g/ha
  Plant response rating, Chickweed: 2
[6]; PREEMERGENCE, Rate 50 g/ha
  Plant response rating, Chickweed: 2
[6]; PREEMERGENCE, Rate 200 g/ha
  Plant response rating (0 to 10 scale), Chickweed: 4
[6]; Rate 200 g/ha, POSTEMERGENCE
  Plant response rating, Chickweed: 3
[7]; POSTEMERGENCE, Rate 50 g/ha
  Plant response rating, Cocklebur: 8
[7]; PREEMERGENCE, Rate 50 g/ha
  Plant response rating, Cocklebur: 0
[7]; PREEMERGENCE, Rate 200 g/ha
  Plant response rating (0 to 10 scale), Cocklebur: 0
[7]; Rate 200 g/ha, POSTEMERGENCE
  Plant response rating, Cocklebur: 10
[8]; POSTEMERGENCE, Rate 50 g/ha
  Plant response rating, Corn: 5
[8]; PREEMERGENCE, Rate 50 g/ha
  Plant response rating, Corn: 0
[8]; PREEMERGENCE, Rate 200 g/ha
  Plant response rating (0 to 10 scale), Corn: 0
[8]; Rate 200 g/ha, POSTEMERGENCE
  Plant response rating, Corn: 8
[9]; POSTEMERGENCE, Rate 50 g/ha
  Plant response rating, Cotton: 10
[9]; PREEMERGENCE, Rate 50 g/ha
  Plant response rating, Cotton: 0
[9]; PREEMERGENCE, Rate 200 g/ha
  Plant response rating (0 to 10 scale), Cotton: 0
[9]; Rate 200 g/ha, POSTEMERGENCE
  Plant response rating, Cotton: 10
[10]; POSTEMERGENCE, Rate 50 g/ha
  Plant response rating, Crabgrass: 3
[10]; PREEMERGENCE, Rate 50 g/ha
  Plant response rating, Crabgrass: 0
[10]; PREEMERGENCE, Rate 200 g/ha
  Plant response rating (0 to 10 scale), Crabgrass: 0
[10]; Rate 200 g/ha, POSTEMERGENCE
  Plant response rating, Crabgrass: 6
[11]; POSTEMERGENCE, Rate 50 g/ha
  Plant response rating, Giant foxtail: 5
[11]; PREEMERGENCE, Rate 50 g/ha
  Plant response rating, Giant foxtail: 0
[11]; PREEMERGENCE, Rate 200 g/ha
  Plant response rating (0 to 10 scale), Giant foxtail: 0
[11]; Rate 200 g/ha, POSTEMERGENCE
  Plant response rating, Giant foxtail: 5
[12]; POSTEMERGENCE, Rate 50 g/ha
  Plant response rating, Lambsquarter: 9
[12]; PREEMERGENCE, Rate 50 g/ha
  Plant response rating, Lambsquarter: 9
[12]; PREEMERGENCE, Rate 200 g/ha
  Plant response rating (0 to 10 scale), Lambsquarter: 10
[12]; Rate 200 g/ha, POSTEMERGENCE
  Plant response rating, Lambsquarter: 10
[13]; POSTEMERGENCE, Rate 50 g/ha
  Plant response rating, Morningglory: 10
[13]; PREEMERGENCE, Rate 50 g/ha
  Plant response rating, Morningglory: 0
[13]; PREEMERGENCE, Rate 200 g/ha
  Plant response rating (0 to 10 scale), Morningglory: 0
[13]; Rate 200 g/ha, POSTEMERGENCE
  Plant response rating, Morningglory: 9
[14]; POSTEMERGENCE, Rate 50 g/ha
  Plant response rating, Rape: 7
[14]; PREEMERGENCE, Rate 50 g/ha
  Plant response rating, Rape: 2
[14]; PREEMERGENCE, Rate 200 g/ha
  Plant response rating (0 to 10 scale), Rape: 2
[14]; Rate 200 g/ha, POSTEMERGENCE
  Plant response rating, Rape: 10
[15]; POSTEMERGENCE, Rate 50 g/ha
  Plant response rating, Rice: 6
[15]; PREEMERGENCE, Rate 50 g/ha
  Plant response rating, Rice: 0
[15]; PREEMERGENCE, Rate 200 g/ha
  Plant response rating (0 to 10 scale), Rice: 0
[15]; Rate 200 g/ha, POSTEMERGENCE
  Plant response rating, Rice: 6
[16]; POSTEMERGENCE, Rate 50 g/ha
  Plant response rating, Sorghum: 4
[16]; PREEMERGENCE, Rate 50 g/ha
  Plant response rating, Sorghum: 0
[16]; PREEMERGENCE, Rate 200 g/ha
  Plant response rating (0 to 10 scale), Sorghum: 0
[16]; Rate 200 g/ha, POSTEMERGENCE
  Plant response rating, Sorghum: 5
[17]; POSTEMERGENCE, Rate 50 g/ha
  Plant response rating, Soybean: 2
[17]; PREEMERGENCE, Rate 50 g/ha
  Plant response rating, Soybean: 0
[17]; PREEMERGENCE, Rate 200 g/ha
  Plant response rating (0 to 10 scale), Soybean: 0
[17]; Rate 200 g/ha, POSTEMERGENCE
  Plant response rating, Soybean: 5
[18]; POSTEMERGENCE, Rate 50 g/ha
  Plant response rating, Sugar beet: 10
[18]; PREEMERGENCE, Rate 50 g/ha
  Plant response rating, Sugar beet: 5
[18]; PREEMERGENCE, Rate 200 g/ha
  Plant response rating (0 to 10 scale), Sugar beet: 5
[18]; Rate 200 g/ha, POSTEMERGENCE
  Plant response rating, Sugar beet: 10
[19]; POSTEMERGENCE, Rate 50 g/ha
  Plant response rating, Velvetleaf: 6
[19]; PREEMERGENCE, Rate 50 g/ha
  Plant response rating, Velvetleaf: 2
[19]; PREEMERGENCE, Rate 200 g/ha
  Plant response rating (0 to 10 scale), Velvetleaf: 7
[19]; Rate 200 g/ha, POSTEMERGENCE
  Plant response rating, Velvetleaf: 9
[20]; POSTEMERGENCE, Rate 50 g/ha
  Plant response rating, Wheat: 2
[20]; PREEMERGENCE, Rate 50 g/ha
  Plant response rating, Wheat: 0
[20]; PREEMERGENCE, Rate 200 g/ha
  Plant response rating (0 to 10 scale), Wheat: 2
[20]; Rate 200 g/ha, POSTEMERGENCE
  Plant response rating, Wheat: 4
[21]; POSTEMERGENCE, Rate 50 g/ha
  Plant response rating, Wild buckwheat: 10
[21]; PREEMERGENCE, Rate 50 g/ha
  Plant response rating, Wild buckwheat: 0
[21]; PREEMERGENCE, Rate 200 g/ha
  Plant response rating (0 to 10 scale), Wild buckwheat: 3
[21]; Rate 200 g/ha, POSTEMERGENCE
  Plant response rating, Wild buckwheat: 10
[22]; POSTEMERGENCE, Rate 50 g/ha
  Plant response rating, Wild oat: 1
[22]; PREEMERGENCE, Rate 50 g/ha
  Plant response rating, Wild oat: 0
[22]; PREEMERGENCE, Rate 200 g/ha
  Plant response rating (0 to 10 scale), Wild oat: 2
[22]; Rate 200 g/ha, POSTEMERGENCE
  Plant response rating, Wild oat: 1
[23]; POSTEMERGENCE, Rate 50 g/ha
  Plant response rating, Nutsedge: 2
[23]; PREEMERGENCE, Rate 50 g/ha
  Plant response rating, Nutsedge: 0
[23]; PREEMERGENCE, Rate 200 g/ha
  Plant response rating (0 to 10 scale), Nutsedge: 0
[23]; Rate 200 g/ha, POSTEMERGENCE
  Plant response rating, Nutsedge: 3
